The values below come from patent publication US9855268B2, “Triazolo[4,5-d]pyrimidine derivatives” (Merck Patent GmbH, priority 2013, dated 2018).

The structures appear in SMILES notation.

Experiment [1] deals with T1, GCN2 (Homo sapiens, UniProt Q9P2K8). As to the kind of experiment: GCN2 enzyme assay (TR-FRET Lanthascreen, GFP-eIF2alpha phosphorylation). In kind it is biochemical. The conditions noted are these: 10 μM ATP, 80 nM GFP-eIF2a, 30 nM GCN2. Summed up: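 Phosphorylation of GFP-eIF2alpha (80 nM) by GCN2 run at room temperature with 10 μM ATP. After EDTA quench, product quantified by Lanthascreen TR-FRET (antibody–GFP complex, 340 nm excitation).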
Target sequence in this assay (Q9P2K8 whole entry, species assumed): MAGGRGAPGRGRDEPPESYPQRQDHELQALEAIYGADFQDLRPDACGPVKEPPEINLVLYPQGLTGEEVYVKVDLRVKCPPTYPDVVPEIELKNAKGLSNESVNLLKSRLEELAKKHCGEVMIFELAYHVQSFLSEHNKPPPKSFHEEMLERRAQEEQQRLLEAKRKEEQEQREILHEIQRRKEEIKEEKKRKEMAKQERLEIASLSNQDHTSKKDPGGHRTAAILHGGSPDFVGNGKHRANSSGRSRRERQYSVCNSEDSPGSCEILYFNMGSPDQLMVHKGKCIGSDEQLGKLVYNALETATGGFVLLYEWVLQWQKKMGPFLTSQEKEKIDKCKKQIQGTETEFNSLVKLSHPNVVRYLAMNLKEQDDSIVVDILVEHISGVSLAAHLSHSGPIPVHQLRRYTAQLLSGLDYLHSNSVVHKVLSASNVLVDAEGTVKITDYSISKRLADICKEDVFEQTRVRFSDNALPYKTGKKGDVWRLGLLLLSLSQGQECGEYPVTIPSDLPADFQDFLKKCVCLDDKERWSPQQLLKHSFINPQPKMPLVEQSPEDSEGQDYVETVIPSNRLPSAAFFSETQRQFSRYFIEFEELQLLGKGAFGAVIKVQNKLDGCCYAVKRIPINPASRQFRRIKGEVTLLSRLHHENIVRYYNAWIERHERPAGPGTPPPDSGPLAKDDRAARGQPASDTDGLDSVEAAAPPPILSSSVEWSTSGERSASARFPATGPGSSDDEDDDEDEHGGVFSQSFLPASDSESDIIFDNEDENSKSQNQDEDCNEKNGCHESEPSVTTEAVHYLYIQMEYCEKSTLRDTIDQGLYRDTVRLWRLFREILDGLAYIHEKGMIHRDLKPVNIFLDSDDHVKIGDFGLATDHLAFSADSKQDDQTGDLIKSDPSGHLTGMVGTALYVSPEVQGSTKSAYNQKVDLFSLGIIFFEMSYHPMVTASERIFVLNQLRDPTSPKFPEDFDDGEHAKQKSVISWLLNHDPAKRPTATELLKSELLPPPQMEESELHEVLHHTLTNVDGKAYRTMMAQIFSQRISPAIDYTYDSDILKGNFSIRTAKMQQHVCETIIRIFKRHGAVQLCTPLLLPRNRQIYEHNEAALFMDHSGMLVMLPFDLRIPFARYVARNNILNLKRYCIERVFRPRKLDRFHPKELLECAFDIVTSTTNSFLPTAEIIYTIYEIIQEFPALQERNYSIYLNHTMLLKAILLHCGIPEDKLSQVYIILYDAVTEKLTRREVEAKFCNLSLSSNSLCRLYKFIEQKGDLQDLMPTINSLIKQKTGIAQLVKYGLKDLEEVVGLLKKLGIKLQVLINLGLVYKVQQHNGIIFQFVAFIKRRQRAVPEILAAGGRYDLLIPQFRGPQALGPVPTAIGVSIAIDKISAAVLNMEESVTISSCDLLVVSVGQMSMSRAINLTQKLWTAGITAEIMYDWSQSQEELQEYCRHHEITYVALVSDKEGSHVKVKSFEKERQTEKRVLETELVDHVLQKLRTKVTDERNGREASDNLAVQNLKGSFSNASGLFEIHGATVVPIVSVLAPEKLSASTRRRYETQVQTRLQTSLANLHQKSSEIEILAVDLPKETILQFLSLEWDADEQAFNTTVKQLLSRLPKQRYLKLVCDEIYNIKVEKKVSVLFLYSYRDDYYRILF

The target of the next experiment is GSK3α(h) (Homo sapiens, UniProt P49840). As to the kind of experiment: GSK3α radiometric kinase assay (33P-ATP, phospho GS2 peptide). It is filed as biochemical. The settings on record: read-out: IC50 GSK3α (enzyme assay). In a few lines: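 Human GSK3α incubated with 20 μM phospho-GS2 peptide in 8 mM MOPS pH 7,0, 10 mM Mg-acetate and [γ-33P]ATP (concentration as required), started with MgATP. After 40 minutes at room temperature, stopped with phosphoric acid; 33P incorporation measured by filtermat spotting and scintillation counting.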
GSK3α(h), sequence (P49840 whole entry): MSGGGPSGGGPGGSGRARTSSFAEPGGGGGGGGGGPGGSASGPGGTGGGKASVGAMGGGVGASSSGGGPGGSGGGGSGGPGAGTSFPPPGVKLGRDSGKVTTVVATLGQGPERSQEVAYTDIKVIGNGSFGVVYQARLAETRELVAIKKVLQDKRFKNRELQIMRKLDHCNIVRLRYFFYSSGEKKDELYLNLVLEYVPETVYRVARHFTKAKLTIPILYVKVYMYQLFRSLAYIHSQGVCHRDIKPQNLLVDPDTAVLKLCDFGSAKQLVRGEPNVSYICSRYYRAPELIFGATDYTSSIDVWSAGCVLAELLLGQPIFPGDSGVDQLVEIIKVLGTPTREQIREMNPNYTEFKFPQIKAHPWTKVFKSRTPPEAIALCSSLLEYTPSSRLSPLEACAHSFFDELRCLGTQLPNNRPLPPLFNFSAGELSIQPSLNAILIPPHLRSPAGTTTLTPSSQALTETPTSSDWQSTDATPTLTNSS

A further experiment concerns the target GSK3β(h) (Homo sapiens, UniProt P49841). Nature of the experiment: GSK3β radiometric kinase assay (33P-ATP, phospho GS2 peptide). It is filed as biochemical. The conditions noted are these: read-out: IC50 GSK3β (enzyme assay). In a few lines:
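Human GSK3β in 8 mM MOPS pH 7,0, 0,2 mM EDTA, 10 mM Mg-acetate with 20 μM phospho-GS2 peptide; the reaction was started with [γ-33P]MgATP at an unstated level. After 40 min at room temperature it was stopped with phosphoric acid, and the peptide was captured on P30 filtermat for scintillation counting.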

For experiment [2], the target named is T1, GCN2. Nature of the experiment: Cellular assay of GCN2 activity (phospho-eIF2alpha immunocytochemistry after tryptophanol). It is filed as cell-based. Further details: endogenous in cells; host or cells: U2OS. The conditions noted are these: Human U2OS cells, 2 h compound, 600 μM tryptophanol 30 min. In a few lines:
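Readout in human U2OS cells: compound pretreatment 2 h, then tryptophanol (600 μM final) for 30 min to trigger GCN2 signalling. Fixed, permeabilised cells quantified by immunocytochemistry for phosphorylation, normalised to DMSO controls as % effect; IC50 from concentration-response.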
Target sequence in this assay (Q9P2K8 whole entry): as the sequence (Q9P2K8 whole entry, species assumed) above

GSK3β(h), sequence (P49841 whole entry): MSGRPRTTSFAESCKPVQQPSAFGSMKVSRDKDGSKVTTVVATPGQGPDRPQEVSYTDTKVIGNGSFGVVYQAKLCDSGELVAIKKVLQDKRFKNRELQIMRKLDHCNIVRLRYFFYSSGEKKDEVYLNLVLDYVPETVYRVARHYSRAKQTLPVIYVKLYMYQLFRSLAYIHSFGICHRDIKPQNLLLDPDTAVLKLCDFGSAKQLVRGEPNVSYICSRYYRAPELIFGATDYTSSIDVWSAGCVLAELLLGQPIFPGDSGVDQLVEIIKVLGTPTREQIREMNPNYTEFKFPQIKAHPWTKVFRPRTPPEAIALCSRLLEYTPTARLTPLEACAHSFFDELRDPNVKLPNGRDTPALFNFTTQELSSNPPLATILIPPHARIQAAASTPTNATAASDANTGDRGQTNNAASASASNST

On to `Cc1cc2cc(-n3nnc4cnc(N[C@@H]5CC[C@@H](C(N)=O)C5)nc43)ccc2o1` [A180, (1R,3R)-3-[3-(2-methyl-benzofuran-5-yl)-3H-[1,2,3]triazolo[4,5-d]pyrimidin-5-ylamino]-cyclopentanecarboxylic acid amide], for which the IC50 at GCN2 [1] is below 1 µM; on GSK3α(h) it was below 1 µM; at GSK3β(h), below 1 µM; at GCN2 [2], 1 to 5 µM.
Take `CCOCCOc1ccc2cc(-n3nnc4cnc(N[C@@H]5CC[C@@H](C(N)=O)C5)nc43)ccc2n1` [A182, (1R,3R)-3-{3-[2-(2-ethoxy-ethoxy)-quinolin-6-yl]-3H-[1,2,3]triazolo[4,5-d]-pyrimidin-5-ylamino}-cyclopentanecarboxylic acid amide]: the IC50 at GCN2 [1] is below 1 µM; at GSK3α(h), below 1 µM; at GSK3β(h), below 1 µM; at GCN2 [2], 1 to 5 µM.
`Cc1ncc2cc(-n3nnc4cnc(N[C@@H]5CC[C@@H](C(N)=O)C5)nc43)ccc2n1` [A184, (1R,3R)-3-[3-(2-methyl-quinazolin-6-yl)-3H-[1,2,3]triazolo[4,5-d]pyrimidin-5-ylamino]-cyclopentanecarboxylic acid amide]: the 50% inhibitory concentration (IC50) on GCN2 [1] is below 1 µM; at GSK3α(h), below 1 µM; at GSK3β(h), below 1 µM; at GCN2 [2] it was 1 to 5 µM.
On to `Cc1ccc2cc(-n3nnc4cnc(N[C@@H]5CC[C@@H](C(N)=O)C5)nc43)ccc2n1` [A187, (1R,3R)-3-[3-(2-methyl-quinolin-6-yl)-3H-[1,2,3]triazolo[4,5-d]-pyrimidin-5-ylamino]-cyclopentanecarboxylic acid amide], for which the IC50 against GCN2 [1], at GSK3α(h), at GSK3β(h) and at GCN2 [2] was below 1 µM in each case.
As for `Cc1ccc2cc(-n3nnc4cnc(N[C@H]5CC[C@H](C(N)=O)C5)nc43)ccc2n1` [A193, (1S,3S)-3-[3-(2-methyl-quinolin-6-yl)-3H-[1,2,3]triazolo[4,5-d]pyrimidin-5-ylamino]-cyclopentanecarboxylic acid amide], the IC50 against GCN2 [1] was below 1 µM; at GSK3α(h), below 1 µM; at GSK3β(h), below 1 µM; at GCN2 [2], 1 to 5 µM.
Take `OCCOc1ccc(-n2nnc3cnc(N[C@@H]4CC[C@@H](O)C4)nc32)cc1` [A203, (1R,3R)-3-{3-[4-(2-hydroxy-ethoxy)-phenyl]-3H-[1,2,3]triazolo[4,5-d]pyrimidin-5-ylamino}-cyclopentanol]: the IC50 at GCN2 [1] was below 1 µM; on GSK3α(h), below 1 µM; on GSK3β(h), below 1 µM; against GCN2 [2], 1 to 5 µM.
`O[C@@H]1CC[C@@H](Nc2ncc3nnn(-c4ccc5ncccc5c4)c3n2)C1` [A204, (1R,3R)-3-(3-quinolin-6-yl-3H-[1,2,3]triazolo[4,5-d]pyrimidin-5-ylamino)-cyclopentanol]: the IC50 is below 1 µM on GCN2 [1], below 1 µM at GSK3α(h), below 1 µM at GSK3β(h) and 1 to 5 µM against GCN2 [2].
Turning to `CCOCCn1cc(-c2ccc(-n3nnc4cnc(N[C@@H]5CC[C@@H](C(N)=O)C5)nc43)cc2)cn1` [A211, (1R,3R)-3-(3-{4-[1-(2-ethoxy-ethyl)-1H-pyrazol-4-yl]-phenyl}-3H-[1,2,3]triazolo[4,5-d]pyrimidin-5-ylamino)-cyclopentanecarboxylic acid amide], the IC50 was below 1 µM against GCN2 [1], below 1 µM at GSK3α(h), below 1 µM on GSK3β(h) and 5 to 10 µM on GCN2 [2].
Take `COCCn1cc(-c2ccc(-n3nnc4cnc(N[C@@H]5CC[C@@H](O)C5)nc43)cc2)cn1` [A212, (1R,3R)-3-(3-{4-[1-(2-methoxy-ethyl)-1H-pyrazol-4-yl]-phenyl}-3H-[1,2,3]triazolo[4,5-d]pyrimidin-5-ylamino)-cyclopentanol]: the IC50 on GCN2 [1] is below 1 µM; at GSK3α(h) it was below 1 µM; on GSK3β(h), below 1 µM; against GCN2 [2], 1 to 5 µM.
As to `COCCn1cc(-c2ccc(-n3nnc4cnc(N[C@@H]5CC[C@@H](C(N)=O)C5)nc43)cc2)cn1` [A218, (1R,3R)-3-(3-{4-[1-(2-methoxy-ethyl)-1H-pyrazol-4-yl]-phenyl}-3H-[1,2,3]triazolo[4,5-d]pyrimidin-5-ylamino)-cyclopentanecarboxylic acid amide], the IC50 at GCN2 [1], on GSK3α(h), on GSK3β(h) and against GCN2 [2] was below 1 µM each time.
Consider `Cc1nc(CCn2cc(-c3ccc(-n4nnc5cnc(N[C@@H]6CC[C@@H](C(N)=O)C6)nc54)cc3)cn2)no1` [A220, (1R,3R)-3-[3-(4-{1-[2-(5-methyl-[1,2,4]oxadiazol-3-yl)-ethyl]-1H-pyrazol-4-yl}-phenyl)-3H-[1,2,3]triazolo[4,5-d]pyrimidin-5-ylamino]-cyclopentanecarboxylic acid amide], for which the IC50 at GCN2 [1], at GSK3α(h), on GSK3β(h) and at GCN2 [2] was below 1 µM each time.
Consider `COCCn1cc(-c2ccc(-n3nnc4cnc(N[C@@H]5CC[C@@H](C(N)=O)C5)nc43)cc2F)cn1` [A221, (1R,3R)-3-(3-{3-fluoro-4-[1-(2-methoxy-ethyl)-1H-pyrazol-4-yl]-phenyl}-3H-[1,2,3]triazolo[4,5-d]pyrimidin-5-ylamino)-cyclopentanecarboxylic acid amide], for which the half-maximal inhibitory concentration (IC50) at GCN2 [1] was below 1 µM; on GSK3α(h), below 1 µM; at GSK3β(h), below 1 µM; against GCN2 [2], 1 to 5 µM.
On to `CCOCCn1cc(-c2ccc(-n3nnc4cnc(N[C@@H]5CC[C@@H](C(N)=O)C5)nc43)cc2F)cn1` [A223, (1R,3R)-3-(3-{4-[1-(2-ethoxy-ethyl)-1H-pyrazol-4-yl]-3-fluoro-phenyl}-3H-[1,2,3]triazolo[4,5-d]pyrimidin-5-ylamino)-cyclopentanecarboxylic acid amide], for which the IC50 on GCN2 [1], at GSK3α(h), at GSK3β(h) and against GCN2 [2] was below 1 µM each time.
With `COCCn1cc(-c2ccc(-n3nnc4cnc(N[C@@H]5CC[C@@H](C(N)=O)C5)nc43)cn2)cn1` [A224, (1R,3R)-3-(3-{6-[1-(2-methoxy-ethyl)-1H-pyrazol-4-yl]-pyridin-3-yl}-3H-[1,2,3]triazolo[4,5-d]pyrimidin-5-ylamino)-cyclopentanecarboxylic acid amide], the IC50 at GCN2 [1] was below 1 µM; at GSK3α(h), below 1 µM; at GSK3β(h), below 1 µM; against GCN2 [2], 5 to 10 µM.
Take `CCOCCn1cc(-c2ccc(-n3nnc4cnc(N[C@@H]5CC[C@@H](C(=O)NCCOC)C5)nc43)cc2)cn1` [A225, (1R,3R)-3-(3-{4-[1-(2-ethoxy-ethyl)-1H-pyrazol-4-yl]-phenyl}-3H-[1,2,3]triazolo[4,5-d]pyrimidin-5-ylamino)-cyclopentanecarboxylic acid (2-methoxy-ethyl)-amide]: the IC50 against GCN2 [1] was below 1 µM; at GSK3α(h), below 1 µM; on GSK3β(h), below 1 µM; against GCN2 [2] it was 1 to 5 µM.
Regarding `CCOCCn1cc(-c2ccc(-n3nnc4cnc(N[C@@H]5CC[C@@H](C(=O)NCCO)C5)nc43)cc2)cn1` [A226, (1R,3R)-3-(3-{4-[1-(2-ethoxy-ethyl)-1H-pyrazol-4-yl]-phenyl}-3H-[1,2,3]triazolo[4,5-d]pyrimidin-5-ylamino)-cyclopentanecarboxylic acid (2-hydroxy-ethyl)-amide], the IC50 on GCN2 [1] is below 1 µM; at GSK3α(h), below 1 µM; at GSK3β(h), below 1 µM; on GCN2 [2], 1 to 5 µM.

As usually defined, the IC50 is the concentration at which inhibition is half-maximal.
